According to patent US20250108038A1 (priority 2023, published 2025):
Values joined by “and” are separate entries in the source; they are usually repeats but may differ in a detail not shown here. Identical values can stand only once.

Assay: Pharmacokinetics after single oral administration to beagle dogs;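 for AUC0-inf of Compound A (as titled): compound A is measured in plasma as a metabolite of the dosed analog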;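 for AUC0-last of Compound A (as titled): compound A is measured in plasma as a metabolite of the dosed analog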;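 for T1/2 of Compound A (as titled): compound A is measured in plasma as a metabolite of the dosed analog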;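 for Tlast of Compound A (as titled): compound A is measured in plasma as a metabolite of the dosed analog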
Assay type: in vivo
Conditions: for plasma concentration of Compound I-17/I-19: single PO 10 mg/kg; for plasma concentration of Compound I-17/I-19 (as titled): single PO 80 mg/kg (as titled)
Experimental: The concentrations of the analytes in the plasma were quantified by liquid chromatography tandem mass spectrometry (LC-MS/MS).
The bioanalytical assay provided a lower limit of quantification (LLOQ) of 1.0 ng/mL and an upper limit of quantification (ULOQ) of 3000 ng/mL for all the analytes. The data of plasma concentration vs. time were analyzed using Phoenix WinNonlin 8.3 to determine the PK properties of the analytes.
The test articles were administered orally by gavage. The nominal dose volume was 5 mL/kg for both analogs.
The observation included appearance, behavior, morbidity and mortality.
Approximately 0.5 mL blood was collected at each scheduled time point from the peripheral veins.
The plasma samples were placed in microcentrifuge tubes and stored at −70+10° C. until analysis.

[1] = after single PO 10 mg/kg of Compound I-17/I-19, female individual
[2] = after single PO 10 mg/kg of Compound I-17/I-19, female individual, 10 mg/kg
[3] = after single PO 10 mg/kg of Compound I-17/I-19, female mean
[4] = after single PO 10 mg/kg of Compound I-17/I-19, male individual, 10 mg/kg
[5] = after single PO 10 mg/kg of Compound I-17/I-19, male mean
[6] = after single PO 80 mg/kg (so in the source) of Compound I-17/I-19, female individual, 80 mg/kg
[7] = after single PO 80 mg/kg (so in the source) of Compound I-17/I-19, female mean
[8] = after single PO 80 mg/kg (so in the source) of Compound I-17/I-19, female mean, 80 mg/kg
[9] = after single PO 80 mg/kg (so in the source) of Compound I-17/I-19, male individual
[10] = after single PO 80 mg/kg (so in the source) of Compound I-17/I-19, male individual, 80 mg/kg
[11] = after single PO 80 mg/kg (so in the source) of Compound I-17/I-19, male mean
[12] = oral 10 mg/kg, female dogs, 10 mg/kg

CC(C)/C=C/COC1(c2ccc(Cl)cc2)c2ccccc2C2=NCCN21 (stereo not shown) [Compound I-17]
T1/2 of Compound A (as titled) [1]: 5.87 h | Tlast of Compound A (as titled) [1]: 24.0 h | AUC0-inf of Compound A (as titled) [2]: 756 ng·h/mL and 946 ng·h/mL | AUC0-last of Compound A (as titled) [2]: 736 ng·h/mL and 915 ng·h/mL | Cmax of Compound A (as titled) [2]: 293 ng/mL and 252 ng/mL | MRT0-inf of Compound A (as titled) [2]: 4.62 h and 5.07 h | MRT0-last of Compound A (as titled) [2]: 3.88 h and 4.14 h | T1/2 of Compound A (as titled) [2]: 6.33 h | Tmax of Compound A (as titled) [2]: 1.00 h and 2.00 h | AUC0-inf of Compound A (as titled) [3]: 851 ng·h/mL | AUC0-last of Compound A (as titled) [3]: 826 ng·h/mL | Cmax of Compound A (as titled) [3]: 272 ng/mL | MRT0-inf of Compound A (as titled) [3]: 4.84 h | MRT0-last of Compound A (as titled) [3]: 4.01 h | T1/2 of Compound A (as titled) [3]: 6.10 h | Tlast of Compound A (as titled) [3]: 24.0 h | Tmax of Compound A (as titled) [3]: 1.50 h | Tmax of Compound A (as titled) (after single PO 10 mg/kg of Compound I-17/I-19, male individual): 1.00 h | AUC0-inf of Compound A (as titled) [4]: 229 ng·h/mL and 522 ng·h/mL | AUC0-last of Compound A (as titled) [4]: 209 ng·h/mL and 513 ng·h/mL | Cmax of Compound A (as titled) [4]: 89.0 ng/mL and 212 ng/mL | MRT0-inf of Compound A (as titled) [4]: 3.07 h and 3.86 h | MRT0-last of Compound A (as titled) [4]: 2.15 h and 3.33 h | T1/2 of Compound A (as titled) [4]: 3.08 h and 5.70 h | Tlast of Compound A (as titled) [4]: 8.00 h and 24.0 h | AUC0-inf of Compound A (as titled) [5]: 376 ng·h/mL | AUC0-last of Compound A (as titled) [5]: 361 ng·h/mL | Cmax of Compound A (as titled) [5]: 151 ng/mL | MRT0-inf of Compound A (as titled) [5]: 3.46 h | MRT0-last of Compound A (as titled) [5]: 2.74 h | T1/2 of Compound A (as titled) [5]: 4.39 h | Tlast of Compound A (as titled) [5]: 16.0 h | Tmax of Compound A (as titled) [5]: 1.00 h | T1/2 of Compound A (after single PO 80 mg/kg (so in the source) of Compound I-17/I-19, female individual): 24.0 h | Cmax of Compound A [6]: 4.00 ng/mL and 2.00 ng/mL | MRT0-inf of Compound A [6]: 0.989 h and 0.999 h | MRT0-last of Compound A [6]: 11.2 h and 11.5 h | Tmax of Compound A [6]: 7.07 h and 7.31 h | MRT0-inf of Compound A [7]: 0.994 h | Tlast of Compound A [7]: 323 h | AUC0-last of Compound A [8]: 323 ng·h/mL | MRT0-last of Compound A [8]: 11.3 h | Tlast of Compound A [9]: 24.0 h | Tmax of Compound A [9]: 2.00 h | AUC0-inf of Compound A [10]: 278 ng·h/mL and 298 ng·h/mL | AUC0-last of Compound A [10]: 258 ng·h/mL and 278 ng·h/mL | Cmax of Compound A [10]: 25.9 ng/mL and 31.6 ng/mL | MRT0-inf of Compound A [10]: 9.72 h and 9.19 h | MRT0-last of Compound A [10]: 7.90 h and 7.43 h | T1/2 of Compound A [10]: 6.33 h and 6.23 h | AUC0-inf of Compound A [11]: 288 ng·h/mL | AUC0-last of Compound A [11]: 268 ng·h/mL | Cmax of Compound A [11]: 28.8 ng/mL | MRT0-inf of Compound A [11]: 9.45 h | MRT0-last of Compound A [11]: 7.66 h | T1/2 of Compound A [11]: 6.28 h | Tlast of Compound A [11]: 24.0 h | Tmax of Compound A [11]: 2.00 h | Cmax of the analog (Compound I-17/I-19) (oral 10 mg/kg, female dogs): 272 ng/mL | T1/2 of the analog (Compound I-17/I-19) (oral 10 mg/kg, female dogs): 6.10 hours | Tmax of the analog (Compound I-17/I-19) (oral 10 mg/kg, female dogs): 1.5 hour | AUC0-last of the analog (Compound I-17/I-19) [12]: 826 ng·h/mL and 836 ng·h/mL | MRT0-last of the analog (Compound I-17/I-19) [12]: 4.01 hours and 2.47 hours | Cmax of the analog (Compound I-17/I-19) (oral 10 mg/kg, male dogs): 151 ng/mL | T1/2 of the analog (Compound I-17/I-19) (oral 10 mg/kg, male dogs): 4.39 hours | Tmax of the analog (Compound I-17/I-19) (oral 10 mg/kg, male dogs): 1 hour | MRT0-last of the analog (Compound I-17/I-19) (oral 10 mg/kg, male dogs, 10 mg/kg): 2.74 hours and 2.30 hours | plasma concentration of Compound I-17/I-19 (0.500 h, female individual, 10 mg/kg): 128 ng/mL and 106 ng/mL | plasma concentration of Compound I-17/I-19 (0.500 h, female mean): 117 ng/mL | plasma concentration of Compound I-17/I-19 (0.500 h, male individual, 10 mg/kg): 73.5 ng/mL and 176 ng/mL | plasma concentration of Compound I-17/I-19 (0.500 h, male mean): 125 ng/mL | plasma concentration of Compound I-17/I-19 ([…] h, female individual, 10 mg/kg): 293 ng/mL and 236 ng/mL | plasma concentration of Compound I-17/I-19 ([…] h, female mean): 265 ng/mL | plasma concentration of Compound I-17/I-19 ([…] h, male individual, 10 mg/kg): 89.0 ng/mL and 212 ng/mL | plasma concentration of Compound I-17/I-19 ([…] h, male mean): 151 ng/mL | plasma concentration of Compound I-17/I-19 (2.00 h, female individual, 10 mg/kg): 164 ng/mL and 252 ng/mL | plasma concentration of Compound I-17/I-19 (2.00 h, female mean): 208 ng/mL | plasma concentration of Compound I-17/I-19 (2.00 h, male individual, 10 mg/kg): 51.0 ng/mL and 101 ng/mL | plasma concentration of Compound I-17/I-19 (2.00 h, male mean): 75.8 ng/mL | plasma concentration of Compound I-17/I-19 (4.00 h, female individual, 10 mg/kg): 43.0 ng/mL and 77.4 ng/mL | plasma concentration of Compound I-17/I-19 (4.00 h, female mean): 60.2 ng/mL | plasma concentration of Compound I-17/I-19 (4.00 h, male individual, 10 mg/kg): 11.2 ng/mL and 26.5 ng/mL | plasma concentration of Compound I-17/I-19 (4.00 h, male mean): 18.9 ng/mL | plasma concentration of Compound I-17/I-19 (6.00 h, female individual, 10 mg/kg): 20.8 ng/mL and 28.2 ng/mL | plasma concentration of Compound I-17/I-19 (6.00 h, female mean): 24.5 ng/mL | plasma concentration of Compound I-17/I-19 (6.00 h, male individual, 10 mg/kg): 6.77 ng/mL and 10.2 ng/mL | plasma concentration of Compound I-17/I-19 (6.00 h, male mean): 8.47 ng/mL | plasma concentration of Compound I-17/I-19 (8.00 h, female individual, 10 mg/kg): 13.6 ng/mL and 15.0 ng/mL | plasma concentration of Compound I-17/I-19 (8.00 h, female mean): 14.3 ng/mL | plasma concentration of Compound I-17/I-19 (8.00 h, male individual, 10 mg/kg): 4.57 ng/mL and 8.39 ng/mL | plasma concentration of Compound I-17/I-19 (8.00 h, male mean): 6.48 ng/mL | plasma concentration of Compound I-17/I-19 (24.0 h, female individual, 10 mg/kg): 2.29 ng/mL and 3.32 ng/mL | plasma concentration of Compound I-17/I-19 (24.0 h, female mean): 2.81 ng/mL | plasma concentration of Compound I-17/I-19 (24.0 h, male individual): 1.16 ng/mL | plasma concentration of Compound I-17/I-19 (24.0 h, male individual, 10 mg/kg): BQL | plasma concentration of Compound I-17/I-19 (as titled) (0.500 h, female individual): 5.44 ng/mL | plasma concentration of Compound I-17/I-19 (as titled) (0.500 h, female individual, 80 mg/kg): BQL | plasma concentration of Compound I-17/I-19 (as titled) (0.500 h, male individual, 80 mg/kg): 7.45 ng/mL and 13.8 ng/mL | plasma concentration of Compound I-17/I-19 (as titled) (0.500 h, male mean): 10.6 ng/mL | plasma concentration of Compound I-17/I-19 (as titled) (2.00 h, female individual, 80 mg/kg): 33.0 ng/mL and 26.4 ng/mL | plasma concentration of Compound I-17/I-19 (as titled) (2.00 h, female mean): 29.7 ng/mL | plasma concentration of Compound I-17/I-19 (as titled) (2.00 h, male individual, 80 mg/kg): 25.9 ng/mL and 31.6 ng/mL | plasma concentration of Compound I-17/I-19 (as titled) (2.00 h, male mean): 28.8 ng/mL | plasma concentration of Compound I-17/I-19 (as titled) (4.00 h, female individual, 80 mg/kg): 35.5 ng/mL and 25.4 ng/mL | plasma concentration of Compound I-17/I-19 (as titled) (4.00 h, female mean): 30.5 ng/mL | plasma concentration of Compound I-17/I-19 (as titled) (4.00 h, male individual, 80 mg/kg): 25.6 ng/mL and 29.0 ng/mL | plasma concentration of Compound I-17/I-19 (as titled) (4.00 h, male mean): 27.3 ng/mL | plasma concentration of Compound I-17/I-19 (as titled) (6.00 h, female individual, 80 mg/kg): 22.9 ng/mL and 18.1 ng/mL | plasma concentration of Compound I-17/I-19 (as titled) (6.00 h, female mean): 20.5 ng/mL | plasma concentration of Compound I-17/I-19 (as titled) (6.00 h, male individual, 80 mg/kg): 14.2 ng/mL and 16.7 ng/mL | plasma concentration of Compound I-17/I-19 (as titled) (6.00 h, male mean): 15.4 ng/mL | plasma concentration of Compound I-17/I-19 (as titled) (8.00 h, female individual, 80 mg/kg): 21.8 ng/mL and 14.4 ng/mL | plasma concentration of Compound I-17/I-19 (as titled) (8.00 h, female mean): 18.1 ng/mL | plasma concentration of Compound I-17/I-19 (as titled) (8.00 h, male individual, 80 mg/kg): 14.9 ng/mL and 13.7 ng/mL | plasma concentration of Compound I-17/I-19 (as titled) (8.00 h, male mean): 14.3 ng/mL | plasma concentration of Compound I-17/I-19 (as titled) (24.0 h, female individual, 80 mg/kg): 4.17 ng/mL and 3.23 ng/mL | plasma concentration of Compound I-17/I-19 (as titled) (24.0 h, female mean): 3.70 ng/mL | plasma concentration of Compound I-17/I-19 (as titled) (24.0 h, male individual, 80 mg/kg): 2.20 ng/mL and 2.28 ng/mL | plasma concentration of Compound I-17/I-19 (as titled) (24.0 h, male mean): 2.24 ng/mL | plasma concentration of Compound I-17/I-19 (as titled) ([…] h, female mean): 15.9 ng/mL | plasma concentration of Compound I-17/I-19 (as titled) ([…] h, male mean): 22.2 ng/mL
